Values quoted from earlier work as cited in patent US20040115261A1, “Controlled delivery of tetracycline compounds and tetracycline derivatives” (priority 2003, published 2004).

Details: based on steady-state pharmacokinetics, minimum antibiotic serum concentration = lowest concentration known to exert a significant antibiotic effect

Question: For `CN(C)[C@@H]1C(O)=C(C(N)=O)C(=O)[C@@]2(O)C(O)=C3C(=O)c4c(O)cccc4[C@@](C)(O)[C@H]3C[C@@H]12` [tetracycline], which “plasma antibiotic threshold level” value is on record?
Answer: Its value is 0.5 µg/mL.
